In the assay the target is T1, MLK-7 (Homo sapiens, UniProt Q9NYL2).
T1 construct: GST; His tag; made in house; host or cells: Sf9 insect cells (baculovirus, pVL1392)
T1 sequence (Q9NYL2 1-455 isoform Q9NYL2-2): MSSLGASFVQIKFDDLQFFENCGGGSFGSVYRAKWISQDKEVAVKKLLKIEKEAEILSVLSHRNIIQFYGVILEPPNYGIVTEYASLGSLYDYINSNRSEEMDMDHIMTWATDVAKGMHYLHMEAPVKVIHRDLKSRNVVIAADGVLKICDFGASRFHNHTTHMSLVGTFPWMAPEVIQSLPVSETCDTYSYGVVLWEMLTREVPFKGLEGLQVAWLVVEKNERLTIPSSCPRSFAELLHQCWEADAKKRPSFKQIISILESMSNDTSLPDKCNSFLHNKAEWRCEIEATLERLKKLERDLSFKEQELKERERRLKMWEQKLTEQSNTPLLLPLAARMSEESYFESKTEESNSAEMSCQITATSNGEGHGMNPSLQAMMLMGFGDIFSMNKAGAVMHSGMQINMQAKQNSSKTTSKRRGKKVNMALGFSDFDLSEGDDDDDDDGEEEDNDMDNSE
As to the kind of experiment: In vitro assay of purified MLK-7 kinase activity (33P transfer from ATP to myelin basic protein). Type of assay: biochemical. As to conditions: recombinant GST-tagged MLK-7 at 1 nm, 30 uM ATP, 5 uM MBP substrate, 2 hours room temperature; read-out: MLK7 IC50. The text has this:
In Vitro Assay of Purified Mixed Lineage Kinase 7 (MLK-7) Activity:
Briefly, recombinant glutathione-s-transferase (GST) tagged MLK-7 is expressed in Sf9 cells using a recombinant baculovirus created using baculovirus transfer vector pVL1392 modified to contain a GST and histidine tag. The recombinant protein is purified over a glutathione column and subsequently used for in vitro kinase assays with myelin basic protein (MBP) as the substrate for phosphorylation. The in vitro kinase reaction is run with recombinant MLK-7 at 1 nm and various concentrations of test compound in a reaction mixture containing 2 mM DTT, 30 uM ATP, 5 mM MgCl2, 5 uM MBP, 4% DMSO, 5 uCi 33P in 44 mM HEPES, (pH 7.4). The reaction is carried out for 2 hours at room temperature and then stopped by the addition of phosphoric acid to 5.5%. The phosphorylated MBP is collected on a filter and radioactivity associated with the membrane measured using a scintillation counter. Inhibitors are identified by the ability to reduce the transfer of radioactive phosphate from ATP to MBP compared to controls run without test compound.
IC50 values, defined as the concentration of test compound required to decrease the transfer of radioactive phosphate from ATP to MBP by 50%, are then determined. Ki values (which refers to the dissociation constant of an enzyme-antagonist complex and serves as an index of ligand binding) for each respective test compound can also be calculated by application of the Cheng-Prusoff equation as described in Cheng et al., Relationship Between The Inhibition Constant (Ki) and The Concentration of Inhibitor Which Causes 50% Inhibition (IC50) of an Enzymatic Reaction, Biochem. Pharmacol., 22: […]; (1973).
Representative compounds of the present invention have an IC50 in the MLK-7 kinase assay of ≦10,000 nM Table I (see infra.) provides IC50 data from the afore mentioned MLK-7 kinase assay for a representative sample of the exemplified compounds of the present invention.
Turning to `N#Cc1ccc(-c2ccc3c(-c4c(-c5ccccn5)nn5c4CCC5)ccnc3c2)cc1` [Example 26, 4-[4-(2-Pyridin-2-yl-5,6-dihydro-4H-pyrrolo[1,2-b]pyrazol-3-yl)quinolin-7-yl]benzonitrile Trifluroacetic Acid], the IC50 was at most 100 nM. The result for `c1ccc(-c2nn3c(c2-c2ccnc4cc(-c5ccc6[nH]ccc6c5)ccc24)CCC3)nc1` [Example 27, 7-(1H-Indol-5-yl)-4-(2-pyridin-2-yl-5,6-dihydro-4H-pyrrolo[1,2-b]pyrazol-3-yl)quinoline Ditrifluoroacetic Acid] reads at most 100 nM; that for `CC(=O)c1ccc(-c2ccc3c(-c4c(-c5ccccn5)nn5c4CCC5)ccnc3c2)cc1` [Example 28, 1-{4-[4-(2-Pyridin-2-yl-5,6-dihydro-4H-pyrrolo[1,2-b]pyrazol-3-yl)quinolin-7-yl]phenyl}ethanone Trifluoroacetic Acid], at most 100 nM. `O=C(O)CCc1ccc(-c2ccc3c(-c4c(-c5ccccn5)nn5c4CCC5)ccnc3c2)cc1` [Example 30, 3-{4-[4-(2-Pyridin-2-yl-5,6-dihydro-4H-pyrrolo[1,2-b]pyrazol-3-yl)quinolin-7-yl]phenyl}propionic Acid Trifluoroacetic Acid]: the concentration for half-maximal inhibition (IC50) is at most 100 nM. In the case of `COc1ccc(-c2ccc3c(-c4c(-c5ccccn5)nn5c4CCC5)ccnc3c2)cc1C` [Example 32, 7-(4-Methoxy-3-methylphenyl)-4-(2-Pyridin-2-yl-5,6-dihydro-4H-pyrrolo[1,2-b]pyrazol-3-yl)quinoline Trifluoroacetic Acid], the half-maximal inhibitory concentration (IC50) was at most 1000 nM.

Consider `Cc1ccc(-c2ccc3c(-c4c(-c5ccccn5)nn5c4CCC5)ccnc3c2)cc1N` [Example 33, 2-Methyl-5-[4-(2-Pyridin-2-yl-5,6-dihydro-4H-pyrrolo[1,2-b]pyrazol-3-yl)quinolin-7-yl]phenylamine Ditrifluoroacetic Acid], for which the IC50 is at most 100 nM. For the compound `c1ccc(-c2nn3c(c2-c2ccnc4cc(-c5ccncc5)ccc24)CCC3)nc1` [Example 34, 7-Pyridin-4-yl-4-(2-Pyridin-2-yl-5,6-dihydro-4H-pyrrolo[1,2-b]pyrazol-3-yl)quinoline Ditrifluoroacetic Acid], the IC50 was at most 100 nM.

As to `c1ccc(-c2nn3c(c2-c2ccnc4cc(-c5cccnc5)ccc24)CCC3)nc1` [Example 35, 7-Pyridin-3-yl-4-(2-Pyridin-2-yl-5,6-dihydro-4H-pyrrolo[1,2-b]pyrazol-3-yl)quinoline Ditrifluoroacetic Acid], the IC50 was at most 100 nM. The result for `O=[N+]([O-])c1ccccc1-c1ccc2c(-c3c(-c4ccccn4)nn4c3CCC4)ccnc2c1` [Example 36, 7-(2-Nitrophenyl)-4-(2-pyridin-2-yl-5,6-dihydro-4H-pyrrolo[1,2-b]pyrazol-3-yl)quinoline Trifluoroacetic Acid] reads at most 1000 nM; that for `CC(=O)Nc1cccc(-c2ccc3c(-c4c(-c5ccccn5)nn5c4CCC5)ccnc3c2)c1` [Example 37, N-{3-[4-(2-pyridin-2-yl-5,6-dihydro-4H-pyrrolo[1,2-b]pyrazol-3-yl)quinolin-7-yl]phenyl}-acetamide Trifluoroacetic Acid], at most 100 nM; that for `C[S+]([O-])c1ccc(-c2ccc3c(-c4c(-c5ccccn5)nn5c4CCC5)ccnc3c2)cc1` (centres unmarked) [Example 38, 7-(4-Methanesulfinylphenyl)-4-(2-pyridin-2-yl-5,6-dihydro-4H-pyrrolo[1,2-b]pyrazol-3-yl)quinoline Trifluoroacetic Acid], at most 100 nM. Turning to `c1ccc(-c2nn3c(c2-c2ccnc4cc(-c5ccc6c(c5)OCO6)ccc24)CCC3)nc1` [Example 40, 7-Benzo[1,3]dioxol-5-yl-4-(2-pyridin-2-yl-5,6-dihydro-4H-pyrrolo[1,2-b]pyrazol-3-yl)quinoline Trifluoroacetic Acid], the IC50 was at most 100 nM. With `O=C(O)c1ccc(-c2ccc3c(-c4c(-c5ccccn5)nn5c4CCC5)ccnc3c2)cc1` [Example 41, 4-[4-(2-pyridin-2-yl-5,6-dihydro-4H-pyrrolo[1,2-b]pyrazol-3-yl)quinolin-7-yl]benzoic Acid Trifluoroacetic Acid], the IC50 is at most 100 nM. With `FC(F)(F)c1cc(-c2ccc3c(-c4c(-c5ccccn5)nn5c4CCC5)ccnc3c2)cc(C(F)(F)F)c1` [Example 42, 7-(3,5-Bis-trifluromethylphenyl)-4-(2-pyridin-2-yl-5,6-dihydro-4H-pyrrolo[1,2-b]pyrazol-3-yl)quinoline Trifluoroacetic Acid], the IC50 was at most 10000 nM.

As to `O=C(O)c1cccc(-c2ccc3c(-c4c(-c5ccccn5)nn5c4CCC5)ccnc3c2)c1` [Example 43, 3-[4-(2-pyridin-2-yl-5,6-dihydro-4H-pyrrolo[1,2-b]pyrazol-3-yl)quinolin-7-yl]benzoic Acid Trifluoroacetic Acid], the 50% inhibitory concentration (IC50) was at most 100 nM. Take `O=C(O)c1ccccc1-c1ccc2c(-c3c(-c4ccccn4)nn4c3CCC4)ccnc2c1` [Example 44, 2-[4-(2-pyridin-2-yl-5,6-dihydro-4H-pyrrolo[1,2-b]pyrazol-3-yl)quinolin-7-yl]benzoic Acid Trifluoroacetic Acid]: the concentration for half-maximal inhibition (IC50) was at most 10000 nM.

As to `CC(C)Cc1ccc(-c2ccc3c(-c4c(-c5ccccn5)nn5c4CCC5)ccnc3c2)cc1` [Example 45, 7-(4-Isobutylphenyl)-4-(2-pyridin-2-yl-5,6-dihydro-4H-pyrrolo[1,2-b]pyrazol-3-yl)quinoline Trifluoroacetic Acid], the IC50 is at most 1000 nM. For the compound `O=C(O)COc1ccc(-c2ccc3c(-c4c(-c5ccccn5)nn5c4CCC5)ccnc3c2)cc1` [Example 46, {4-[4-(2-pyridin-2-yl-5,6-dihydro-4H-pyrrolo[1,2-b]pyrazol-3-yl)quinolin-7-yl]phenoxy}acetic Acid Trifluoroacetic Acid], the IC50 was at most 100 nM. In the case of `c1ccc(-c2nn3c(c2-c2ccnc4cc(-c5cc6ccccc6s5)ccc24)CCC3)nc1` [Example 47, 7-Benzo[b]thiophen-2-yl-4-(2-pyridin-2-yl-5,6-dihydro-4H-pyrrolo[1,2-b]pyrazol-3-yl)quinoline Trifluoroacetic Acid], the half-inhibitory concentration (IC50) was at most 1000 nM.

With `c1ccc(-c2nn3c(c2-c2ccnc4cc(-c5cc6ccccc6o5)ccc24)CCC3)nc1` [Example 48, 7-Benzofuran-2-yl-4-(2-pyridin-2-yl-5,6-dihydro-4H-pyrrolo[1,2-b]pyrazol-3-yl)quinoline Trifluoroacetic Acid], the 50% inhibitory concentration (IC50) is at most 100 nM.

Turning to `c1ccc(-c2nn3c(c2-c2ccnc4cc(-c5ccsc5)ccc24)CCC3)nc1` [Example 50, 4-(2-pyridin-2-yl-5,6-dihydro-4H-pyrrolo[1,2-b]pyrazol-3-yl)-7-thiophen-3-yl-quinoline Trifluoroacetic Acid], the half-inhibitory concentration (IC50) was at most 100 nM. Take `c1ccc(-c2nn3c(c2-c2ccnc4cc(-c5ccoc5)ccc24)CCC3)nc1` [Example 51, 7-Furan-3-yl-4-(2-pyridin-2-yl-5,6-dihydro-4H-pyrrolo[1,2-b]pyrazol-3-yl)quinoline Trifluoroacetic Acid]: the IC50 was at most 100 nM.

For the compound `c1ccc(-c2nn3c(c2-c2ccnc4cc(-c5ccc(C6CCCCC6)cc5)ccc24)CCC3)nc1` [Example 53, 7-(4-Cyclohexyl-phenyl)-4-(2-pyridin-2-yl-5,6-dihydro-4H-pyrrolo[1,2-b]pyrazol-3-yl)-quinoline Trifluoroacetic Acid], the IC50 was at most 10000 nM.

For orientation: IC50 means the concentration at which inhibition is half-maximal.
